According to the COVID Moonshot data (paper PMC7615835):
Several values for one entry are separate records, joined by “and”; a condition that tells them apart may be missing. Equal entries are not always repeated.

Assays:
[1] = biological target: SARS-CoV-2 Main Protease (SARS-CoV-2) (UniProt P0DTD1)
[2] = in vivo, iv, 0.5 mg/kg

Row | Structure (SMILES) | IC50 [1] [nM] | AUC(0-inf) ([2]; rat) | AUC(0-t) ([2]; rat) | C0 ([2]; rat) | MRT inf ([2]; rat) | MRT last ([2]; rat) | Vd ([2]; rat) | clearance ([2]; rat) | half-life ([2]; rat) | CC50 (a549) [nM] | further results
1 | N#CCC(=O)N1Cc2ccc(Cl)cc2C(C(=O)Nc2cncc3ccccc23)C1 (stereo unspecified) | 204 | 128 ng·h/mL and 148 ng·h/mL | 124 ng·h/mL and 144 ng·h/mL | 404 ng/mL and 370 ng/mL | 28.7 min and 29.3 min | 24.5 min and 25.6 min | 1.61 L/kg and 1.36 L/kg | 54.8 mL/min/kg and 47.4 mL/min/kg | 25.4 min and 22 min | – | –
2 | Cc1nnc(CN2Cc3ccc(Cl)cc3C(C(=O)Nc3cncc4ccccc34)C2)[nH]1 (stereo unspecified) | 750 | 143 ng·h/mL and 182 ng·h/mL | 142 ng·h/mL and 178 ng·h/mL | 621 ng/mL and 588 ng/mL | 28.7 min and 20.8 min | 19.7 min and 25.8 min | 1.21 L/kg and 1.32 L/kg | 58.3 mL/min/kg and 46.8 mL/min/kg | 18.7 min and 22.1 min | – | –
3 | N#Cc1ccc2cncc(NC(=O)C3CCOc4ccc(Cl)cc43)c2c1 (stereo unspecified) | – | – | – | – | – | – | – | – | – | > 10000 | –
4 | O=C(Nc1cncc2cc(F)ccc12)C1CCS(=O)(=O)c2ccc(Cl)cc21 (stereo unspecified) | 770 | 875 ng·h/mL and 1050 ng·h/mL | 869 ng·h/mL and 1030 ng·h/mL | 655 ng/mL and 704 ng/mL | 118 min and 107 min | 104 min and 111 min | 1.03 L/kg and 0.95 L/kg | 9.52 mL/min/kg and 8.12 mL/min/kg | 69.6 min and 78 min | – | –
5 | O=C(Nc1cncc2ccccc12)C1CCN(Cc2ccn[nH]2)c2ccc(Cl)cc21 (stereo unspecified) | 803 | – | – | – | – | – | – | – | – | > 9990 | –
6 | O=C(Cc1cccc(Cl)c1)Nc1cncc2cc[nH]c12 | 1900 | 129 ng·h/mL and 176 ng·h/mL and 114 ng·h/mL | 128 ng·h/mL and 172 ng·h/mL and 113 ng·h/mL | 320 ng/mL and 470 ng/mL and 344 ng/mL | 29.9 min and 38.2 min and 23 min | 35.3 min and 27 min and 21.6 min | 2.47 L/kg and 1.46 L/kg and 2.1 L/kg | 64.5 mL/min/kg and 48.4 mL/min/kg and 91.1 mL/min/kg | 42.8 min and 22.7 min and 19.5 min | – | –
7 | N#Cc1cc(Cl)cc2c1NCCC2C(=O)Nc1cncc2ccccc12 (stereo unspecified) | 242 | – | – | – | – | – | – | – | – | > 9990 | –
8 | CC1(C(=O)Nc2cncc3ccc(S(C)(=O)=O)cc23)CNC(=O)c2ccc(Cl)cc21 (stereo unspecified) | 6620 | 304 ng·h/mL and 309 ng·h/mL | 292 ng·h/mL and 303 ng·h/mL | 660 ng/mL and 636 ng/mL | 38.1 min and 34.1 min | 29.1 min and 35 min | 1.08 L/kg and 1.19 L/kg | 31.8 mL/min/kg and 32.2 mL/min/kg | 26.9 min and 30.5 min | – | –
9 | O=C(Nc1cncc2ccccc12)C(O)c1ccc(Cl)c(Cl)c1 (stereo unspecified) | 2010 | – | – | – | – | – | – | – | – | > 9990 | –
10 | C=CC(=O)N(C(=O)[C@@H]1CCOc2ccc(Cl)cc21)c1cncc2ccccc12 (stereo in doubt) | – | – | – | – | – | – | – | – | – | > 9990 | CC50 (vero): > 9990 nM
11 | O=C(Cc1cccc(Cl)c1)Nc1cnc2ccccn12 | 8030 | 285 ng·h/mL and 249 ng·h/mL | 284 ng·h/mL and 247 ng·h/mL | 663 ng/mL and 588 ng/mL | 26.8 min and 26.9 min | 26.4 min and 25.6 min | 0.788 L/kg and 0.895 L/kg | 29.2 mL/min/kg and 33.5 mL/min/kg | 25.6 min and 22.8 min | – | –
12 | CS(=O)(=O)N1Cc2ccc(Cl)cc2C(C(=O)Nc2cncc3ccccc23)C1 (stereo unspecified) | – | – | – | – | – | – | – | – | – | – | AUC(0-inf) ([2]; mouse): 125 ng·h/mL and 139 ng·h/mL; AUC(0-t) ([2]; mouse): 124 ng·h/mL and 138 ng·h/mL; C0 ([2]; mouse): 399 ng/mL and 588 ng/mL; MRT inf ([2]; mouse): 21.6 min and 18.2 min; MRT last ([2]; mouse): 20.8 min and 17.6 min; Vd ([2]; mouse): 1.4 L/kg and 1.06 L/kg; clearance ([2]; mouse): 64.9 mL/min/kg and 59 mL/min/kg; half-life ([2]; mouse): 16.7 min
13 | N#Cc1ncc(NC(=O)Cc2cccc(Cl)c2)c2ccccc12 | 65900 | 242 ng·h/mL and 224 ng·h/mL | 241 ng·h/mL and 222 ng·h/mL | 809 ng/mL and 728 ng/mL | 28.6 min and 29.3 min | 28.2 min and 26.5 min | 1.17 L/kg and 1.23 L/kg | 39.9 mL/min/kg and 43.2 mL/min/kg | 35.3 min and 42.1 min | – | –
14 | C=CC(=O)N(C(=O)C1CCOc2ccc(Cl)cc21)c1cncc2ccccc12 (stereo unspecified) | – | – | – | – | – | – | – | – | – | > 10000 | –
